The values that follow are results of earlier work, collected in patent US20090203786A1, “Methods and Composition for Improving Cognitive Function” (priority 2005, published 2009).

For the series the following is noted: Connor W E et al. (1990).

`CC/C=C\C/C=C\C/C=C\C/C=C\C/C=C\C/C=C\CCC(=O)O` [DHA, docosahexaenoic acid]: the “half-life of DHA in brain” value (Rhesus monkey brain) was 21 days. Also, the “Cerebral DHA concentration relative to pre-supplementation value” (Rhesus monkeys, stabilized after 12 weeks of supplementation) is 7 times.
